In patent publication US20220330549A1, “USE OF N-BENZYLBENZAMIDE-BASED COMPOUND AS HERBICIDE” (Northwest A&F University, priority 2020, published 2022):

How the values were obtained:
Assay type in all cases: in vivo
[1] = system: Barnyard grass; assay: Herbicidal activity test for indoor pre-emergence soil treatment; set-up: key: level 1-9; higher = more weed remaining vs blank control; details: 150 g a.i./ha, visual inspection 21 days after treatment
Summary of the method: (§1)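 Pre-emergence test following NY/T 1155.3-2006: weed seeds were sown in moistened neutral sandy loam (≤2% organic matter) and covered with 0.5–2.0 cm of soil. After 24 h, the soil was sprayed with a 10% EC diluted in water at 150 g(a.i.)/ha. Damage was scored visually on a 1–9 scale at 21 days.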

[2] = system: Piemarker; assay: as above; set-up: key: level 1-9; higher = more weed remaining vs blank control; details: 150 g a.i./ha, visual inspection 21 days after treatment
Summary of the method: as §1

[3] = system: green bristlegrass; assay: as above; set-up: key: level 1-9; higher = more weed remaining vs blank control; details: 150 g a.i./ha, visual inspection 21 days after treatment
Summary of the method: as §1

[4] = system: Amaranthus retroflexus; assay: as above; set-up: key: 1-9 levels; higher = more weed remaining vs blank control; details: 150 g a.i./ha, visual inspection 21 days after treatment
Summary of the method: as §1

[5] = system: Digitaria sanguinalis; assay: as above; set-up: key: 1-9 levels; higher = more weed remaining vs blank control; details: 150 g a.i./ha, visual inspection 21 days after treatment
Summary of the method: as §1

[6] = system: Humulus scandens; assay: as above; details: 150 g a.i./ha, visual inspection 21 days after treatment
Summary of the method: as §1

[7] = system: Amaranthus retroflexus; assay: Herbicidal activity test for indoor post-emergence spraying on stems and leaves; set-up: key: grade level by weed remaining vs blank control, e.g. 5 = 10.1-15%; details: 150 g a.i./ha, visual inspection 21 days after treatment
Summary of the method: (§2)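 Greenhouse-grown weeds, post-emergence foliar spray (NY/T 1155.4-2006 method); visual scoring at 21 d post-treatment as levels vs. untreated blank control (e.g., level 5 = 10.1–15%, level 8 = 35.1–67.5% of control weed).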

[8] = system: Barnyard grass; assay: as above; set-up: key: grade level by weed remaining vs blank control, e.g. 5 = 10.1-15%; details: 150 g a.i./ha, visual inspection 21 days after treatment
Summary of the method: as §2

[9] = system: Digitaria sanguinalis; assay: as above; set-up: key: grade level by weed remaining vs blank control, e.g. 5 = 10.1-15%; details: 150 g a.i./ha, visual inspection 21 days after treatment
Summary of the method: as §2

[10] = system: Humulus scandens; assay: as above; set-up: key: grade level by weed remaining vs blank control, e.g. 5 = 10.1-15%; details: 150 g a.i./ha, visual inspection 21 days after treatment
Summary of the method: as §2

[11] = system: Piemarker; assay: as above; set-up: key: grade level by weed remaining vs blank control, e.g. 5 = 10.1-15%; details: 150 g a.i./ha, visual inspection 21 days after treatment
Summary of the method: as §2

[12] = system: green bristlegrass; assay: as above; set-up: key: grade level by weed remaining vs blank control, e.g. 5 = 10.1-15%; details: 150 g a.i./ha, visual inspection 21 days after treatment
Summary of the method: as §2

[13] = system: Broadleaf weed; assay: Post-emergence herbicidal activity test in a paddy field; set-up: key: level scale; higher level = more weed left vs blank control; details: 150 g a.i./ha (penoxsulam control 250 g(a.i.)/h)
Summary of the method: (§3)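 Efficacy was visually estimated 15 and 30 days after spraying, grading weed coverage relative to an untreated neighbouring plot (level 2 = 0 to 2.5%, level 9 = 67.6 to 100%). Treatments were 150 g(a.i.)/ha from 10% emulsifiable concentrates applied at the 4-5 leaf rice stage, four repeats of 50 m^2 each.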

[14] = system: Cyperaceae; assay: as above; set-up: key: level scale; higher level = more weed left vs blank control; details: 150 g a.i./ha (penoxsulam control 250 g(a.i.)/h)
Summary of the method: as §3

[15] = system: Gramineae; assay: as above; set-up: key: level scale; higher level = more weed left vs blank control; details: 150 g a.i./ha (penoxsulam control 250 g(a.i.)/h)
Summary of the method: as §3

[16] = system: Acalypha australis; assay: Field test for weed control in a corn field; details: 150 g a.i./ha, after treatment
Summary of the method: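 Herbicidal activity against weeds was assessed in corn plots by the GB/T 17980.42-2000 method. Corn at the 2–5 leaf stage received water sprays of 10% emulsifiable concentrates at 150 g(a.i.)/ha, four repeats per treatment over 20 m^2. A 25% mesotrione oil dispersion was the reference. Damage symptoms and severity were rated on levels 1-9 relative to weeds in the blank control area.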

[17] = system: Amaranthus retroflexus; assay: Field test for weed control in a corn field; details: 150 g a.i./ha, 30 days after treatment
Summary of the method: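 Post-emergence control of Amaranthus retroflexus was assessed in corn plots using the GB/T 17980.42-2000 method. Emulsifiable concentrates (10%) in water were applied by spraying at the 2- to 5-leaf crop stage on 20 m^2 plots, four replicates each, alongside a mesotrione 25% oil dispersion reference. Herbicidal activity was scored on 1-9 levels by weed amount relative to blank control areas.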

[18] = system: Barnyard grass; assay: Field test for weed control in a corn field; details: 150 g a.i./ha, 30 days after treatment
Summary of the method: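 Herbicidal activity against barnyard grass was assessed in corn field plots of 20 m^2, with four replicates per treatment. Compounds were applied as water-diluted 10% emulsifiable concentrates at 150 g(a.i.)/ha at the 2-5 leaf corn stage, with 25% mesotrione oil dispersion as the reference agent. Damage was scored on a 1-9 scale against untreated blank plots.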

[19] = system: Chenopodium album; assay: Field test for weed control in a corn field; details: 150 g a.i./ha, after treatment
Summary of the method: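 Field weed-control testing in corn, run per GB/T 17980.42-2000, scored Chenopodium album on a 1-9 level scale, where each level matches a percentage range of weed remaining relative to the blank control area. Sprays of 10% emulsifiable concentrates in water delivered 150 g(a.i.)/ha at the corn 2-leaf to 5-leaf stage on 20 m^2 plots, four replicates each. Mesotrione 25% oil dispersion served as reference.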

[20] = system: Convolvulus arvensis; assay: Field test for weed control in a corn field; details: 150 g a.i./ha, after treatment
Summary of the method: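 Post-emergence herbicidal activity on Convolvulus arvensis was scored in a corn field on a 1-9 scale, based on symptoms and damage severity. Each level corresponds to the weed remaining as a percentage of the blank control area. Sprays of 10% emulsifiable concentrate at 150 g(a.i.)/ha went on at the corn 2–5 leaf stage, with four replicates of 20 m^2 per treatment.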

[21] = system: Digitaria sanguinalis; assay: Field test for weed control in a corn field; details: 150 g a.i./ha, after treatment
Summary of the method: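 Field trial in a corn field following GB/T 17980.42-2000. Test compounds were formulated as 10% emulsifiable concentrates, diluted in water and sprayed post-emergence at 150 g(a.i.)/ha when corn had 2 to 5 leaves, with 4 replicates on 20 m^2 plots. Control of Digitaria sanguinalis was scored on a 1-9 scale based on weed damage relative to the untreated blank area.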

[22] = system: Portulaca oleracea; assay: Field test for weed control in a corn field; details: 150 g a.i./ha, after treatment
Summary of the method: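 Post-emergence weed control was evaluated in a corn field by the GB/T 17980.42-2000 method. Emulsifiable concentrates (10%) in water were applied as sprays at 150 g(a.i.)/ha at the 2-5 leaf corn stage, in four replicate 20 m^2 plots. A 25% mesotrione oil dispersion served as control agent. Effects were graded 1-9 relative to weed remaining in blank control areas.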

[23] = system: Solanum nigrum; assay: Field test for weed control in a corn field; details: 150 g a.i./ha, 30 days after treatment
Summary of the method: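 In a corn field trial based on GB/T 17980.42-2000, 10% emulsifiable concentrates diluted in water were sprayed at 150 g(a.i.)/ha at the 2 to 5 leaf stage of corn. Each treatment used 20 m^2 plots and was repeated 4 times, with 25% mesotrione oil dispersion as the reference agent. Solanum nigrum damage was scored on a 1-9 scale against blank control plots.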

[24] = system: goosegrass; assay: Field test for weed control in a corn field; details: 150 g a.i./ha, after treatment
Summary of the method: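 In this field trial in corn, run per GB/T 17980.42-2000, test agents prepared as 10% emulsifiable concentrates were applied in water as sprays at 150 g(a.i.)/ha at the 2- to 5-leaf corn stage. Each treatment covered 20 m^2 and was repeated 4 times. Goosegrass control was scored 1-9 relative to weed remaining in blank control areas.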

[25] = system: green bristlegrass; assay: Field test for weed control in a corn field; details: 150 g a.i./ha, after treatment
Summary of the method: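 Herbicidal activity against green bristlegrass was assessed in corn field plots of 20 m^2 per GB/T 17980.42-2000. Test agents, formulated as 10% emulsifiable concentrates, were applied in water at 150 g(a.i.)/ha at the corn 2 leaves to 5 leaves stage, repeated 4 times. A 25% mesotrione oil dispersion served as the control agent, and weed damage was rated on levels 1-9.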

[26] = system: nutgrass flatsedge; assay: Field test for weed control in a corn field; details: 150 g a.i./ha, after treatment
Summary of the method: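 Herbicidal effect on nutgrass flatsedge was measured in a field planted with corn, using the GB/T 17980.42-2000 method. Emulsifiable concentrates (10%) in water were sprayed at 150 g(a.i.)/ha during the 2-leaf to 5-leaf corn stage, on 20 m^2 plots repeated 4 times. 25% mesotrione oil dispersion was the control agent. Activity was scored from 1 to 9 by weed remaining relative to blank control plots.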

## COc1ccc(OC)c(C(=O)NCc2ccc(F)cc2)c1 [Compound A23]
[1]
  Herbicidal Activity Barnyard grass: 1
[2]
  Herbicidal Activity Piemarker: 2 (equivalent to 0 to 2.5% of the weed in the blank control area)
[3]
  Herbicidal Activity Green bristlegrass: 1
[4]
  Herbicidal Activity Amaranthus retroflexus: 2 (equivalent to 0 to 2.5% of the weed in the blank control area)
[5]
  Herbicidal Activity Digitaria sanguinalis: 1
[6]
  Herbicidal Activity Humulus scandens: 4 (equivalent to 5.1 to 10% of the weed in the blank control area)
[7]
  Herbicidal Activity Amaranthus retroflexus: 1
[8]
  Herbicidal Activity Barnyard grass: 1
[9]
  Herbicidal Activity Digitaria sanguinalis: 1
[10]
  Herbicidal Activity Humulus scandens: 1
[11]
  Herbicidal Activity Piemarker: 1
[12]
  Herbicidal Activity Green bristlegrass: 1
[13]
  Herbicidal activity 15 days after treatment Broadleaf weed: 1
  Herbicidal activity 30 days after treatment Broadleaf weed: 1
[14]
  Herbicidal activity 15 days after treatment Cyperaceae: 1
  Herbicidal activity 30 days after treatment Cyperaceae: 1
[15]
  Herbicidal activity 15 days after treatment Gramineae: 1
  Herbicidal activity 30 days after treatment Gramineae: 1
[16]
  Post-emergence weed control effect, Acalypha australis: 2 (equivalent to 0 to 2.5% of the weed in the blank control area)
[17]
  Post-emergence weed control effect, Amaranthus retroflexus: 1
[18]
  Post-emergence weed control effect, Barnyard grass: 2 (equivalent to 0 to 2.5% of the weed in the blank control area)
[19]
  Post-emergence weed control effect, Chenopodium album: 1
[20]
  Post-emergence weed control effect, Convolvulus arvensis: 1
[21]
  Post-emergence weed control effect, Digitaria sanguinalis: 2 (equivalent to 0 to 2.5% of the weed in the blank control area)
[22]
  Post-emergence weed control effect, Portulaca oleracea: 1
[23]
  Post-emergence weed control effect, Solanum nigrum: 2 (equivalent to 0 to 2.5% of the weed in the blank control area)
[24]
  Post-emergence weed control effect, Goose grass: 2 (equivalent to 0 to 2.5% of the weed in the blank control area)
[25]
  Post-emergence weed control effect, Green bristlegrass: 1
[26]
  Post-emergence weed control effect, Nutgrass flatsedge: 3 (equivalent to 2.6 to 5% of the weed in the blank control area)

## COc1ncccc1C(=O)NCc1cccc(C)c1 [Compound A85]
[1]
  Herbicidal Activity Barnyard grass: 1
[2]
  Herbicidal Activity Piemarker: 1
[3]
  Herbicidal Activity Green bristlegrass: 1
[4]
  Herbicidal Activity Amaranthus retroflexus: 2 (equivalent to 0 to 2.5% of the weed in the blank control area)
[5]
  Herbicidal Activity Digitaria sanguinalis: 1
[6]
  Herbicidal Activity Humulus scandens: 3 (equivalent to 2.6 to 5% of the weed in the blank control area)
[7]
  Herbicidal Activity Amaranthus retroflexus: 1
[8]
  Herbicidal Activity Barnyard grass: 1
[9]
  Herbicidal Activity Digitaria sanguinalis: 1
[10]
  Herbicidal Activity Humulus scandens: 1
[11]
  Herbicidal Activity Piemarker: 1
[12]
  Herbicidal Activity Green bristlegrass: 1
[13]
  Herbicidal activity 15 days after treatment Broadleaf weed: 1
  Herbicidal activity 30 days after treatment Broadleaf weed: 1
[14]
  Herbicidal activity 15 days after treatment Cyperaceae: 1
  Herbicidal activity 30 days after treatment Cyperaceae: 1
[15]
  Herbicidal activity 15 days after treatment Gramineae: 2 (equivalent to 0 to 2.5% of the weed in the blank control area)
  Herbicidal activity 30 days after treatment Gramineae: 1
[16]
  Post-emergence weed control effect, Acalypha australis: 1
[17]
  Post-emergence weed control effect, Amaranthus retroflexus: 1
[18]
  Post-emergence weed control effect, Barnyard grass: 1
[19]
  Post-emergence weed control effect, Chenopodium album: 1
[20]
  Post-emergence weed control effect, Convolvulus arvensis: 1
[21]
  Post-emergence weed control effect, Digitaria sanguinalis: 2 (equivalent to 0 to 2.5% of the weed in the blank control area)
[22]
  Post-emergence weed control effect, Portulaca oleracea: 1
[23]
  Post-emergence weed control effect, Solanum nigrum: 2 (equivalent to 0 to 2.5% of the weed in the blank control area)
[24]
  Post-emergence weed control effect, Goose grass: 2 (equivalent to 0 to 2.5% of the weed in the blank control area)
[25]
  Post-emergence weed control effect, Green bristlegrass: 1
[26]
  Post-emergence weed control effect, Nutgrass flatsedge: 2 (equivalent to 0 to 2.5% of the weed in the blank control area)
